SMILES strings stand for the structures. The source made the active and inactive calls. The rule behind the calls is not given here.

Here are results for four compounds from PubChem BioAssay AID1259407 (Chemical Carcinogenesis Research Information System (CCRIS), 2018).

The data set relates to CCRIS mutagenicity, Ames/micronucleus/aberration tests. The data set is described as follows: CCRIS mutagenicity studies.
[1] abbreviates: Test System: AMES SALMONELLA TYPHIMURIUM, Strain/Indicator: TA98, Metabolic Activation: NONE, Method: PREINCUBATION
[2] abbreviates: Test System: AMES SALMONELLA TYPHIMURIUM, Strain/Indicator: TA100, Metabolic Activation: NONE, Method: PREINCUBATION
Setting [3] is: Test System: AMES SALMONELLA TYPHIMURIUM, Strain/Indicator: TA100, Metabolic Activation: NONE, Method: STANDARD PLATE.
Where [4] appears, read: Test System: AMES SALMONELLA TYPHIMURIUM, Strain/Indicator: TA1535, Metabolic Activation: NONE, Method: PREINCUBATION
The mark [5] stands for this setting: Test System: AMES SALMONELLA TYPHIMURIUM, Strain/Indicator: TA1537, Metabolic Activation: NONE, Method: PREINCUBATION

Regarding `ClCc1ccc(Cl)cc1`, the mutagenic call by setting is: (End Point: In vitro chromosomal aberrations, Test System: Chinese hamster lung (CHL/IU) cells, Metabolic Activation: Rat, Liver, S9, Phenobarbital and 5,6-benzoflavone) “active; positive (structural changes and ploidy). precipitation in the culture medium at”; under setting [1], “inactive; negative”; (Test System: AMES SALMONELLA TYPHIMURIUM, Strain/Indicator: TA98, Metabolic Activation: RAT LIVER S-9, PHENOBARBITAL AND BETA-NAPHTHOFLAVONE, Method: PREINCUBATION) “inactive; negative”; under setting [2], “inactive; negative”; under setting [3], “inactive; negative”; (Test System: AMES SALMONELLA TYPHIMURIUM, Strain/Indicator: TA100, Metabolic Activation: RAT LIVER S-9, PHENOBARBITAL AND BETA-NAPHTHOFLAVONE, Method: PREINCUBATION) “inactive; negative”. Further, the mutagenic call by setting is: (Test System: AMES SALMONELLA TYPHIMURIUM, Strain/Indicator: TA102, Metabolic Activation: NONE, Method: PREINCUBATION) “inactive; negative”; (Test System: AMES SALMONELLA TYPHIMURIUM, Strain/Indicator: TA102, Metabolic Activation: RAT LIVER S-9, PHENOBARBITAL AND BETA-NAPHTHOFLAVONE, Method: PREINCUBATION) “inactive; negative”; (Test System: AMES SALMONELLA TYPHIMURIUM, Strain/Indicator: TA104, Metabolic Activation: NONE, Method: PREINCUBATION) “inactive; negative”; (Test System: AMES SALMONELLA TYPHIMURIUM, Strain/Indicator: TA104, Metabolic Activation: RAT LIVER S-9, PHENOBARBITAL AND BETA-NAPHTHOFLAVONE, Method: PREINCUBATION) “inactive; negative”; under setting [4], “inactive; negative”; (Test System: AMES SALMONELLA TYPHIMURIUM, Strain/Indicator: TA1535, Metabolic Activation: RAT LIVER S-9, PHENOBARBITAL AND BETA-NAPHTHOFLAVONE, Method: PREINCUBATION) “inactive; negative”. Further, the mutagenic call is “inactive; negative” under setting [5]; “inactive; negative” (Test System: AMES SALMONELLA TYPHIMURIUM, Strain/Indicator: TA1537, Metabolic Activation: RAT LIVER S-9, PHENOBARBITAL AND BETA-NAPHTHOFLAVONE, Method: PREINCUBATION); “inactive; negative” (Test System: E.COLI, Strain/Indicator: WP2UVRA/PKM101, Metabolic Activation: NONE, Method: PREINCUBATION); “inactive; negative” (Test System: E.COLI, Strain/Indicator: WP2UVRA/PKM101, Metabolic Activation: RAT LIVER S-9, PHENOBARBITAL AND BETA-NAPHTHOFLAVONE, Method: PREINCUBATION); “inactive; negative” (Test System: E.COLI, Strain/Indicator: WP2UVRA, Metabolic Activation: NONE, Method: PREINCUBATION); “inactive; negative” (Test System: E.COLI, Strain/Indicator: WP2UVRA, Metabolic Activation: RAT LIVER S-9, PHENOBARBITAL AND BETA-NAPHTHOFLAVONE, Method: PREINCUBATION).

Consider `Cc1ccc(CN2C3c4ccccc4-c4ccccc4C32)cc1` (stereo unspecified), for which, under setting [3], the mutagenic call is “active; positive”.

With `O=C(/C=C/c1ccccc1)c1ccc(O)cc1`, the mutagenic call runs as follows: (Test System: AMES SALMONELLA TYPHIMURIUM, Strain/Indicator: TA98, Metabolic Activation: NONE, Method: STANDARD PLATE) “inactive; negative”; (Test System: AMES SALMONELLA TYPHIMURIUM, Strain/Indicator: TA98, Metabolic Activation: RAT, LIVER, S-9, AROCLOR 1254, Method: STANDARD PLATE) “inactive; negative”; under setting [3], “inactive; negative”; (Test System: AMES SALMONELLA TYPHIMURIUM, Strain/Indicator: TA100, Metabolic Activation: RAT, LIVER, S-9, AROCLOR 1254, Method: STANDARD PLATE) “inactive; negative”.

Turning to `O=C(O)C(F)(F)C(F)(Cl)C(F)(F)C(F)(Cl)C(F)(F)C(F)(Cl)C(F)(F)Cl` (stereo unspecified), the mutagenic call is, setting by setting: under setting [1], “inactive; negative”; (Test System: AMES SALMONELLA TYPHIMURIUM, Strain/Indicator: TA98, Metabolic Activation: RAT, LIVER, S-9, Method: PREINCUBATION) “inactive; negative”; under setting [2], “inactive; negative”; (Test System: AMES SALMONELLA TYPHIMURIUM, Strain/Indicator: TA100, Metabolic Activation: RAT, LIVER, S-9, Method: PREINCUBATION) “inactive; negative”; under setting [4], “inactive; negative”; (Test System: AMES SALMONELLA TYPHIMURIUM, Strain/Indicator: TA1535, Metabolic Activation: RAT, LIVER, S-9, Method: PREINCUBATION) “inactive; negative”. Moreover, the mutagenic call by setting is: under setting [5], “inactive; negative”; (Test System: AMES SALMONELLA TYPHIMURIUM, Strain/Indicator: TA1537, Metabolic Activation: RAT, LIVER, S-9, Method: PREINCUBATION) “inactive; negative”; (Test System: AMES SALMONELLA TYPHIMURIUM, Strain/Indicator: TA1538, Metabolic Activation: NONE, Method: PREINCUBATION) “inactive; negative”; (Test System: AMES SALMONELLA TYPHIMURIUM, Strain/Indicator: TA1538, Metabolic Activation: RAT, LIVER, S-9, Method: PREINCUBATION) “inactive; negative”; (Test System: CHINESE HAMSTER OVARY, Strain/Indicator: CHO-K1-BH4 (HGPRT), Metabolic Activation: NONE, Method: STANDARD PLATE) “inactive; negative”; (Test System: CHINESE HAMSTER OVARY, Strain/Indicator: CHO-K1-BH4 (HGPRT), Metabolic Activation: RAT, LIVER, S-9, Method: STANDARD PLATE) “inactive; negative”. In addition, the mutagenic call (Test System: UDS RODENT HEPATOCYTES, Strain/Indicator: THY INCORP (NON-S-PHASE), Metabolic Activation: NONE, Method: AUTORADIOGRAPHY) is “inactive; negative”.
